Read-outs that look alike come from different tables or passages of the source.
Assays:
[1] = ref Chen et al. [2018], cited from earlier work
primary rat hepatocytes [2] = conditions: same model system; ref Chen et al. [2018]; read-out: EC50 cell viability; cited from earlier work
primary rat hepatocytes [3] = assay: WST-1 cytotoxicity assay with primary rat hepatocytes; assay type: cell-based, rat (Sprague–Dawley); conditions: primary rat hepatocytes
Procedure: The monocrotaline-induced liver toxicity was tested in vitro using the WST-1 assay which measures the formazan formation by the metabolically active cells from WST-1. Pooled cryopreserved plateable male rat (Sprague–Dawley) hepatocytes (RTCP10™) were thawed and seeded in accordance with the manufacturer’s protocol. Briefly, cells were seeded in 96-well plates (Greiner bio-one, Alphen aan den Rijn, The Netherlands) at a concentration of 5 × 10^5 cells/ml to give 1.25 × 10^4 cells/well and incubated at 37 °C, 5% CO2 in a humidified atmosphere for 6 h to allow cell adherence. […] The solvent DMSO (0.5% (v/v) final concentration in exposure medium) was used as a negative control and triton X (final concentration 1% (v/v) in exposure medium) served as a positive control in all cytotoxicity assays. After exposure for 24 h, 5 μl (1:20 dilution) WST-1 reagent was added to each well and plates were incubated for an additional 1 h. Then, the plate was shaken at 1000 rpm for 1 min, and absorbance was measured at 440 nm (background absorbance at 620 nm was subtracted) using a SpectraMax M2 (Molecular Devices, Sunnyvale, USA).
Data are presented as mean values ± SE from three independent experiments with three different batches of rat hepatocytes. The cell viability was expressed as percentage of the solvent control, with the solvent control set at 100%. The obtained concentration–response curves for hepatotoxicity were fitted with a symmetrical sigmoidal model (Hill slope) which was further used to derive IC50 values using log [inhibitor] vs. normalized response using GraphPad Prism software (version 5.00 for Windows, GraphPad software, San Diego, USA).

[4] = ref Chen et al. [2018]; cited from earlier work
[5] = tested on: human liver cell line HepaRG; conditions: in vitro γH2AX induction potency, ref Louisse et al. ([2019]); cited from earlier work
[6] = ref Chen et al. [2018], cited from earlier work; remark: listed apart in the source
[7] = ref Chen et al. [2018]; cited from earlier work; remark: listed apart in the source
[8] = ref Merz and Schrenk ([2016]); cited from earlier work
[9] = Substrate depletion in incubations with pooled rat liver microsomes; assay type: in vitro ADME, rat (Sprague–Dawley); conditions: liver microsomes versus intestinal microsomes
Procedure: After 5 min of pre-incubation in a shaking water bath at 37 °C, the reactions were started by the addition of 1 mM NADPH. The reactions were carried out for 1 h and 2 h for liver and intestinal microsomes, respectively. For each incubation, a corresponding control incubated in the absence of NADPH was included by adding buffer instead of NADPH. To stop the metabolic conversion, 100 µl of ice-cold methanol was added and the sample was put on ice, then centrifuged at 5000 × g for 20 min at 4 °C using a microcentrifuge (CT15RE, VWR, Leuven, Belgium). Supernatants were diluted 200 times in 90% (v/v) acetonitrile and transferred to LC–MS vials. LC–MS analysis was performed using a Shimadzu Nexera XR LC-20AD SR UPLC system in tandem with a Shimadzu LCMS-8040 mass spectrometer (Shimadzu, Kyoto, Japan). From each incubation, 1 µl of supernatant was loaded onto a Luna Omega polar C18 100A LC column (1.6 µm 100 × 2.1 mm, Phenomenex) fitted with a FP polar precolumn (Phenomenex), using a flow rate of 0.3 ml/min. The temperature was set at 40 °C and 5 °C for column and sample, respectively. The mobile phase consisted of ultrapure water (solvent A) and acetonitrile (solvent B) both containing 0.1% (v/v) formic acid. The gradient began with 100% solvent A (0% B) for 1 min to wash away unwanted salts, followed by a linear gradient from 0 to 5% B till 8 min and a further increase to 100% B in 2 min, keeping the elution at 100% B for 0.5 min, then the column was set back to the starting conditions and equlibrated for 3.4 min before the next injection. […] For all incubations, three independent replicates were performed.
The ratio of Vmax and Km was calculated as the in vitro catalytic efficiency (kcat) expressed in […]. […] The rat liver weight of 8.5 g and small intestine weight of 3.5 g (see Table 1) (Brown et al. [1997]) were used to scaled the in vivo kcat values to values expressed in ml/min/tissue.

For C=C1C/C(=C/C)C(=O)O[C@@H]2CCN3CC=C(COC(=O)[C@@]1(O)CO)[C@H]23 [Riddelliine], which Km ([1]; intestine) is on record?
The Km was 221 µM.

What about the “Scaled Vmax” value ([1]; intestine) of the same compound?
The value was 2.06 nmol/min/g tissue.

What about the Scaled kcat ([1]; intestine) of the same compound?
Its Scaled kcat is 0.009 ml/min/g tissue.

And the Vmax ([1]; intestine)?
Its Vmax is 0.1 nmol/min/mg microsomal protein.

And the Scaled kcat ([1]; small intestine weight 3.5 g)?
Its Scaled kcat is 0.03 ml/min/ tissue.

What about the EC50 (primary rat hepatocytes [2]) of the same compound?
Its EC50 is 6.3 µM.

And the “times more toxic than monocrotaline in vitro” value (primary rat hepatocytes [3])?
Its value is 20.7.

And the “Ka derived from Eq. 5” value [4]?
The value was 1.17 h⁻¹.

And the “pRPF (provisional relative potency factor)” value [5]?
Its value is 1.

And the potency group [5]?
The potency group was “group 1”.

And the Scaled kcat ([6]; liver weight 8.5 g)?
The Scaled kcat was 8.2 ml/min/ tissue.

And the Km ([6]; liver)?
The Km was 75.7 µM.

And the “Scaled Vmax” value ([6]; liver)?
Its value is 73.5 nmol/min/g tissue.

And the Scaled kcat ([6]; liver)?
Its Scaled kcat is 0.97 ml/min/g tissue.

And the Vmax ([6]; liver)?
The Vmax was 2.1 nmol/min/mg microsomal protein.

And the “Tissue/blood partition coefficient, fat (PF)” value [7]?
The value was 0.44.

And the “Tissue/blood partition coefficient, liver (PL)” value [7]?
Its value is 0.77.

And the “Tissue/blood partition coefficient, richly perfused tissue (PR)” value [7]?
The value was 0.77.

And the “Tissue/blood partition coefficient, slowly perfused tissue (PS)” value [7]?
Its value is 0.43.

What about the “Tissue/blood partition coefficient, small intestine (PI)” value [7] of the same compound?
Its value is 0.77.

What about the “pRPF (provisional relative potency factor)” value [8] of the same compound?
The value was about 1.0.

And the “in vivo scaled kcat (ml/min tissue) liver relative to intestine” value [9]?
The value was 253 times.

Which results are given for C/C=C(/C)C(=O)O[C@H]1CCN2CC=C(COC(=O)[C@@](O)([C@H](C)OC)C(C)(C)O)[C@H]12 [Lasiocarpine]?
Km ([1]; intestine): 23.4 µM; EC50 (primary rat hepatocytes [2]): 10.9 µM; times more toxic than monocrotaline in vitro (primary rat hepatocytes [3]): 35.7; potency group [5]: group 1; Km ([6]; liver): 19.5 µM; Tissue/blood partition coefficient, fat (PF) [7]: 2.44; Tissue/blood partition coefficient, liver (PL) [7]: 0.88; Tissue/blood partition coefficient, richly perfused tissue (PR) [7]: 0.88; Tissue/blood partition coefficient, slowly perfused tissue (PS) [7]: 0.48; Tissue/blood partition coefficient, small intestine (PI) [7]: 0.88

Source: article PMC7415757, “Monocrotaline-induced liver toxicity in rat predicted by a combined in vitro physiologically based kinetic modeling approach” (Archives of Toxicology, 2020)
